One data set has as its target pp60^c-src (Homo sapiens, UniProt P12931). Briefly: src Cellular Mimetic assay (RR-SRC phosphorylation). The following applies: for inhibition at 1000 µM: read-out: % Inhibition of 2 mM RR-src phosphorylation by src, Cellular Mimetic; for % Inhibition of 2 mM RR-src at Inhibitor Concentration ( ): Table IV.
In a further data set the target is T1, src (Homo sapiens, UniProt P12931).
T1 construct: purchased
The experiment in a line: src Literature Mimetic assay (RR-src phosphorylation). As to conditions: Inhibitor 1 mM; read-out: % Inhibition of 2 mM RR-src phosphorylation by src, Literature Mimetic. The data set is classed as biochemical.

In data set [1] the target is T2, PKA (Homo sapiens, UniProt P17612). The experiment in a line: STAIRe method: form of the protein kinase the inhibitor binds best. The data set is classed as biochemical. An excerpt: This was a somewhat surprising result since these inhibitors are analogs of the “end product inhibitors” 1 and 12 which must bind simultaneously with MgADP, following phosphate transfer in the generally accepted reaction mechanism for protein kinases.

Data set [2] concerns the target T2, PKA. Briefly: PKA Literature Mimetic assay. In kind it is biochemical. As to conditions: for Ki: Literature Mimetic (L) conditions. From the text:
(§1) The boronic acid inhibitors 21-24 have two Arg residues in their sequence and therefore will bind to the phosphocellulose paper in addition to Kemptamide (although not as consistently or completely due to one less positive charge). Consequently, when analyzed as inhibitors, the amount of phosphorylated Kemptamide produced was not only counted, but also the amount of phosphorylated inhibitor simultaneously produced (e.g. see 26 below). The net result is that distorted IC50 curves are obtained which show net “stimulation” at higher inhibitor concentrations in some cases. […] The underlying substrate behavior of these “inhibitors” makes an accurate measurement of their inhibition potency impossible with the current assay. However, it does appear from the data that homologating/extending the boronic acid functionality with CH2 groups (homologations/extensions with boronic acid non-peptide src inhibitors may also be carried out) decreases the binding affinity and ability of the compound to function as a substrate.

Data set [3] has as its target T2, PKA. Briefly: PKA Cellular Mimetic assay. In kind it is biochemical. The following applies: Cellular Mimetic (C) conditions.
Text: as §1

In data set [4] the test system is ovarian tumor cells from tumor N015. The experiment in a line: Patient tumor cell culture (ovarian tumors, abdominal carcinoma; tumor N015). The data set is classed as cell-based, human. An excerpt: The initial non-peptide Src inhibitors have also shown very encouraging results in four different series of cell culture assays. 1) In the NIH 60-tumor cell panel assay, broad activity (as one would expect for a Src inhibitor) was seen against the tumor cell lines, including the prostate lines. […] […].

Data set [5] concerns T3, boronic acid-containing PKA pentapeptide inhibitor 21, Ac-RRGXI-NH2.
T3 sequence: RRGXI

Data set [6] relates to T4, boronic acid-containing PKA pentapeptide inhibitor 22, Ac-RRGXI-NH2.
T4 sequence: RRGXI

Another data set concerns the target p56^lck (Homo sapiens, UniProt P06239). The following applies: analyzed with p56^lck; cited from earlier work.
For data set [7], the target named is cAMP-dependent protein kinase (PKA). Briefly: PKA kinase inhibition assay, Literature Mimetic conditions.
Data set [8] shares this target. Briefly: PKA kinase inhibition assay, Literature Mimetic conditions; reference: phosphate inhibitor 1.
The target is the same in data set [9]. The experiment in a line: PKA kinase inhibition assay, Cellular Mimetic conditions; reference: phosphate inhibitor 1.
Data set [10] shares this target. Briefly: PKA kinase inhibition assay (Ki, Table I); reference: the same inhibitor under Literature Mimetic conditions.
Data set [11] has the same target. Briefly: PKA kinase inhibition assay, Literature Mimetic conditions; reference: sulfamic acid inhibitor 8.
Data set [12] has the same target. Briefly: cell-based or functional assay.
The target is the same in data set [13]. The experiment in a line: PKA kinase inhibition assay with Kemptamide substrate, Literature Mimetic conditions, 0 h preincubation.
Data set [14] has the same target. The experiment in a line: PKA kinase inhibition assay with Kemptamide substrate, Cellular Mimetic conditions, 0 h preincubation.

*1 amine or outer side, *2 acyl side, *3 side chain or, on linkers, in order; H or OH if unused. Where a SMILES comes first, the peptide text is derived from it. [ ]: non-standard residue; d: D form. X2 = O=C(O)CC(CC(=O)O)NC[C@H](N[*:1])C(=O)[*:2]; Abu(4-PO3H2) = N[C@@H](CCP(=O)(O)O)C(=O)O; X1 = O=C([C@H](CNS(=O)(=O)O)N[*:1])[*:2]; M1 = not defined here

The text below walks through data of US7901894B2, “Kinase inhibitors” (The Research Foundation of State University of New York, priority 1999, dated 2011).

T1 sequence (P12931 whole entry): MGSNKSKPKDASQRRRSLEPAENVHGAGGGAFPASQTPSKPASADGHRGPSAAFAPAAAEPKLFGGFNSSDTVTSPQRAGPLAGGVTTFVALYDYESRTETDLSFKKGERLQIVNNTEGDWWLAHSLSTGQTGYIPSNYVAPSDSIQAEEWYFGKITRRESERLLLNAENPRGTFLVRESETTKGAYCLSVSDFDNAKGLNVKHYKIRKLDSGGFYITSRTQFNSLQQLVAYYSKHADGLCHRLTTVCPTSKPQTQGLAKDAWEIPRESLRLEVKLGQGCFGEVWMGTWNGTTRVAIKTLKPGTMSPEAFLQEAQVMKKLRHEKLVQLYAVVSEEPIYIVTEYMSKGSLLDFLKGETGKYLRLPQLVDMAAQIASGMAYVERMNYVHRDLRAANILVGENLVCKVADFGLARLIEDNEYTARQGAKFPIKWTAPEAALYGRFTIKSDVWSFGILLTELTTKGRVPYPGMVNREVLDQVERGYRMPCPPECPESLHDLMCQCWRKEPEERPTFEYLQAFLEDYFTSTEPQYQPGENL
Chain of pp60^c-src (P12931 whole entry): as above
Chain of p56^lck (P06239 whole entry, species assumed): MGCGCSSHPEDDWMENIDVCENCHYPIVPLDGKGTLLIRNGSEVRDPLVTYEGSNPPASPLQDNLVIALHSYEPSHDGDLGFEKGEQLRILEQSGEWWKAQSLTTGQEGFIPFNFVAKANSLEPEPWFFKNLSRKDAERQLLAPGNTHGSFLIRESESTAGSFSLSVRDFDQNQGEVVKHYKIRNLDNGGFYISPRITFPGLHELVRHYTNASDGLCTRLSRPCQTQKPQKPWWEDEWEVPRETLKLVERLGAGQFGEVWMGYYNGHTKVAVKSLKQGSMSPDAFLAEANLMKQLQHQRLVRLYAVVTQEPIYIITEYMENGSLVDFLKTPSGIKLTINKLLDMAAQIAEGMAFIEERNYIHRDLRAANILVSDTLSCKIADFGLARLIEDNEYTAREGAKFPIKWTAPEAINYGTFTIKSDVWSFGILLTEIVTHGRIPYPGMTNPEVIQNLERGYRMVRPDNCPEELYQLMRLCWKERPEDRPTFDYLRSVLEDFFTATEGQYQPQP

Turning to `COC(=O)c1cc2ccccc2cc1N` [Compd 1d], at pp60^c-src (Table VI, hydroxynaphthalene series, 198 μM ATP), the “% Inhibition at 100 μM (std. dev.)” value was “inactive”.

Consider `NC(=O)C(O)C(=O)O` (centres unmarked), for which the inhibition at 1000 µM on src was determined as 64%; at pp60^c-src it was 5%.

In the case of `OB(O)c1cc2ccccc2o1` [compound 35], at pp60^c-src (100 μM inhibitor), the “% Inhibition of 2 mM RR-src at Inhibitor Concentration ( )” value (“% Inhibition of 2 mM RR-src” for short) is on record as 10 (100 μM) %.

As for `CC[C@H](C)[C@H](NC(=O)[C@H](CNS(=O)(=O)O)NC(=O)CNC(=O)[C@H](CCCNC(=N)N)NC(=O)[C@H](CCCNC(=N)N)NC(C)=O)C(N)=O` [compound 8] (Ac-RRG[X1]I-NH2), at PKA [1], the “enzyme form bound best (STAIRe methodology)” value is listed as “bind best when MgATP (not MgADP or no nucleotide) is also bound”. The “binds more tightly than end product phosphate inhibitor 1” value on PKA [2] (Literature Mimetic conditions) is 31 times; on PKA [3], 108 times.

`NC(=O)C(N)C(=O)O` (centres unmarked): the inhibition at 1000 µM at src stood at 24%; on pp60^c-src, 0%.

Regarding `CC[C@H](C)[C@H](NC(=O)[C@H](CCP(=O)(O)O)NC(=O)CNC(=O)[C@H](CCCNC(=N)N)NC(=O)[C@H](CCCNC(=N)N)NC(C)=O)C(N)=O` (Ac-RRG[Abu(4-PO3H2)]I-NH2), the affinity at PKA [2], expressed as Ki, was 76 µM.

With `NS(=O)(=O)c1ccc2ccccc2c1`, the “% Inhibition of 2 mM RR-src” value on pp60^c-src (100 μM inhibitor) was 0 (100 μM) %.

For the molecule `NC(=O)CC(=O)O`, the inhibition at 1000 µM was 20% at src and 28% at pp60^c-src.

As for `CC[C@H](C)[C@H](NC(=O)[C@H](CC(O)P(=O)(O)O)NC(=O)CNC(=O)[C@H](CCCNC(=N)N)NC(=O)[C@H](CCCNC(=N)N)NC(C)=O)C(N)=O` (single isomer, unassigned) [inhibitor 3B], affinity at PKA [2] was put at a Ki of 72 µM.

For `CC(=O)O[C@H]1C(=O)[C@@]2(C)[C@H]([C@H](OC(=O)c3ccccc3)[C@]3(O)C[C@H](OC(=O)[C@H](O)[C@@H](NC(=O)c4ccccc4)c4ccccc4)C(C)=C1C3(C)C)[C@]1(OC(C)=O)CO[C@@H]1C[C@@H]2O` [taxol], the “efficacy in tumor cell culture compared with other drugs” value in [4] is “more effective than etoposide & cisplatin”.

As to cAMP-dependent protein kinase (PKA), the “phosphorylation by PKA on incubation for up to 4 hours without Kemptamide” value in data set [5] was “both 21 and 22 function as substrates with the D-diastereomer 22 being phosphorylated faster”; in data set [6], “both 21 and 22 function as substrates with the D-diastereomer 22 being phosphorylated faster”.

Molecule `CC[C@H](C)[C@H](NC(=O)[C@H](CNC(CC(=O)O)CC(=O)O)NC(=O)CNC(=O)[C@H](CCCNC(=N)N)NC(=O)[C@H](CCCNC(=N)N)NC(C)=O)C(N)=O` (Ac-RRG[X2]I-NH2) had a Ki on PKA [2] of 45 µM.

Consider `Cc1cc(O)c2c(c1)C(=O)c1cc(O)cc(O)c1C2=O` [Emodin], for which the “mode of inhibition with respect to ATP” value at p56^lck is given as “ATP-competitive”.

For `COc1cccc2c1C(=O)c1c(O)c3c(c(O)c1C2=O)C[C@@](O)(C(=O)CO)C[C@@H]3O[C@H]1C[C@H](N)[C@H](O)[C@H](C)O1` [doxorubicin], in data set [4], the “efficacy in tumor cell culture compared with other drugs” value is listed as “more effective than etoposide & cisplatin”.

For `OB(O)c1ccc2ccccc2c1` [compound 27], on pp60^c-src (ATP increased up to 1 mM), the “mode of inhibition relative to ATP” value is on record as “not ATP-competitive”.

Consider `O=P(O)(O)CO`, for which the results for the inhibition at 1000 µM on src and on pp60^c-src were 51% and 0%, respectively.

For `CC[C@H](C)[C@H](NC(=O)[C@H](CC(O)P(=O)(O)O)NC(=O)CNC(=O)[C@H](CCCNC(=N)N)NC(=O)[C@H](CCCNC(=N)N)NC(C)=O)C(N)=O` (single isomer, unassigned) [inhibitor 3A], on PKA [2], the affinity corresponds to a Ki of 18 µM.

As for `OB(O)c1cccc2ccccc12`, the “% Inhibition of 2 mM RR-src” value on pp60^c-src (100 μM inhibitor) was 0 (100 μM) %.

In the case of `O=S(=O)(O)c1ccc2ccccc2c1`, the “% Inhibition of 2 mM RR-src” value at pp60^c-src (1 mM inhibitor) is reported as 0 (1 mM) %.

Turning to `NS(=O)(=O)c1cccc2ccccc12`, at pp60^c-src (100 μM inhibitor), the “% Inhibition of 2 mM RR-src” value was 0 (100 μM) %.

B1: PKA pentapeptide inhibitor 3A (hydroxyphosphonate, diastereomer A), Ac-Arg-Arg-Gly-Ala(M1)-Ile-NH2 (peptide)
peptide: Ac-RRGA(M1)I-NH2
modifications: reading uncertain; also: diastereomer A at M1, printed as Ac-Arg-Arg-Gly-Ala(M1)-Ile-NH2
In [7], B1 registered a Ki of 18 µM.

B2: PKA pentapeptide inhibitor 8 (sulfamic acid), Ac-Arg-Arg-Gly-Ala(M1)-Ile-NH2 (peptide)
peptide: Ac-RRGAI-NH2
modifications: not fully specified (residue 4); printed as Ac-Arg-Arg-Gly-Ala(M1)-Ile-NH2; also: M1 = sulfamic acid on side chain of residue 4
Turning to B2, in data set [7], the Ki amounted to 0.16 µM. In addition, the fold tighter binding than end product phosphate inhibitor 1 in data set [8] is 31 times; in data set [9], 108 times.

B3: PKA pentapeptide inhibitor 2 (phosphonate), Ac-Arg-Arg-Gly-Ala(M1)-Ile-NH2 (peptide)
peptide: Ac-RRGAI-NH2
modifications: not fully specified (residue 4); printed as Ac-Arg-Arg-Gly-Ala(M1)-Ile-NH2; also: M1 = phosphonate on side chain of residue 4
B3 showed a Ki in [7] of 76 µM.

B4: PKA pentapeptide inhibitor 10, Ac-Arg-Arg-Gly-Ala(M1)-Ile-NH2 (peptide)
peptide: Ac-RRGA(M1)I-NH2
modifications: reading uncertain; also: M1 group structure shown only in a drawing, printed as Ac-Arg-Arg-Gly-Ala(M1)-Ile-NH2
B4 came in with a fold change in potency, Literature Mimetic to Cellular Mimetic conditions in data set [10] of 3 fold.

B5: PKA pentapeptide inhibitor 3B (hydroxyphosphonate, diastereomer B), Ac-Arg-Arg-Gly-Ala(M1)-Ile-NH2 (peptide)
peptide: Ac-RRGA(M1)I-NH2
modifications: reading uncertain; also: diastereomer B at M1, printed as Ac-Arg-Arg-Gly-Ala(M1)-Ile-NH2
For B5, the Ki in [7] stood at 72 µM.

B6: PKA pentapeptide inhibitor 1 (end product phosphate inhibitor), Ac-Arg-Arg-Gly-Ala(M1)-Ile-NH2 (peptide)
peptide: Ac-RRGAI-NH2
modifications: not fully specified (residue 4); printed as Ac-Arg-Arg-Gly-Ala(M1)-Ile-NH2; also: M1 = phosphate group on side chain of residue 4
On to B6, for which the fold change in potency, Literature Mimetic to Cellular Mimetic conditions in [10] was 108 fold.

B7: PKA pentapeptide inhibitor 11, Ac-Arg-Arg-Gly-Ala(M1)-Ile-NH2 (peptide)
peptide: Ac-RRGA(M1)I-NH2
modifications: not fully specified; printed as Ac-Arg-Arg-Gly-Ala(M1)-Ile-NH2; reading uncertain
For the molecule B7, the Ki in data set [7] stood at 45 µM.

B8: PKA pentapeptide inhibitor 7 (sulfonamide), Ac-Arg-Arg-Gly-Ala(M1)-Ile-NH2 (peptide)
peptide: Ac-RRGAI-NH2
modifications: not fully specified (residue 4); printed as Ac-Arg-Arg-Gly-Ala(M1)-Ile-NH2; also: M1 = sulfonamide on side chain of residue 4
B8 displayed a Ki in data set [7] of 300 µM. Further, the fold less potent than inhibitor 8 in [11] is 1880 times.

B9: pentapeptide pseudosubstrate inhibitor 20, Ac-RRGAI-NH2 (peptide)
peptide: Ac-RRGAI-NH2
In data set [12], B9 showed an IC50 µM (cond. C, 0 h preincubation), PKA inhibition of 41 µM; an IC50 µM (cond. C, 4 h preincubation), PKA inhibition of 50 µM; an IC50 µM (cond. L, 0 h preincubation), PKA inhibition of 278 µM; an IC50 µM (cond. L, 4 h preincubation), PKA inhibition of 417 µM. The same molecule yielded an inhibition constant Ki in data set [13] of 9 µM. In addition, in [14], the Ki is 25 µM.
